Source: patent US20210147807A1, “METHODS FOR PURIFYING ENDODERM AND PANCREATIC ENDODERM CELLS DERIVED FROM HUMAN EMBRYONIC STEM CELLS” (HELMHOLTZ ZENTRUM MUNCHEN - DEUTSCHES FORSCHUNGSZENTRUM FUR …, priority 2017, published 2021)

Tests used:
[1] = test system: CD177+ and CD275+ ADE subpopulations in the bulk CXCR4+ DE population; test: Modulation of ADE differentiation efficiency by BMP/TGF-β inhibitors during endoderm induction, FACS percentage of CD177+ and CD275+ ADE; assay type: cell-based, human; details: for percentage of CD275+ DE differentiation: combination of 2.5 μM DMH1 and 1 μM SB431542, endoderm differentiation until D4
Description: I-K) Pie charts representing the percentage of CD177+ and CD275+ ADE subpopulations generated using no inhibition of pathways (I, condition 1), with high inhibition of BMP signalling using BMP inhibitor DMH1 (J, condition 2) and with moderate BMP inhibition and low TGF-β inhibition (K, condition 3).
(§1) H9, Mel1-NKX6.1-GFPand iPSCs were cultured on 1:30 diluted Geltrex (Invitogen, U.K, Cat #A1413302) in StemMACS iPS-Brew medium (Miltenyi Biotech, Germany, Cat #130-104-368). At ^˜70-80% confluency, cultures were rinsed with 1×DPBS without Mg2+ and Ca2+ (Invitrogen, Cat #14190) followed by incubation with 0.5 mM EDTA (Applichem, Cat #12604-021) for 2-3 min at 37° C. Single cells were rinsed with iPS-Brew, and spun at 1,300 r.p.m. for 3 mins. The resulting cell pellet was suspended in iPS-Brew medium supplemented with Y-27632 (10 μM; Sigma-Aldrich; MO, Cat #Y0503) and the single cell suspension was seeded at ^˜1.5-2×10 s cells/cm2 on Geltrex-coated surfaces. Cultures were fed every day with iPS-Brew medium and differentiation was initiated 24 h following seeding, resulting in ^˜90% starting confluency. The cells were differentiated towards definitive endoderm using MCDB131 medium supplemented with 0.5% BSA (Sigma, Cat #10775835001), 100 ng/ml Activin A (Peprotech, Cat #120-14-300) and 25 ng/ml WNT3A (Peprotech, Cat #315-20) for the first day. For the next 2 days, the cells were treated with MCDB131 supplemented with 0.5% BSA and 100 ng/ml Activin A. For differentiation towards β cells, Rezania, et. al; 2014 β-cell differentiation protocol was used 14. In nutshell, the cells were differentiated towards primitive gut tube with MCDB131 supplemented with 0.5% BSA, 50 ng/ml of FGF7 (Peprotech, Cat #100-19-100) and 0.25 mM Vit.C (Sigma, Cat #120-14-300) for 2 days. For differentiation towards posterior foregut, the cells were further exposed to MCDB131 medium supplemented with 1xGlutamax (Gibco, Cat #A12860-01), 2% BSA (Cat #10775835001), 0.25 mM Vit. C (Sigma, Cat #A4544-25G), 50 ng/ml FGF7, 0.25 μM SANT-1 (Sigma, Cat #54572-5MG), 1 μM retinoic acid (Sigma, Cat #R2625-50MG), 100 nM LDN193189 (Sigma, Cat #04-0074), 1:200 ITS-X (Gibco, Cat #51500-056) and 200 nM TPB (Merk Millipore, Cat #565740-1MG) for 2 days. For the WNT inhibition experiment only, 1.25 μM of IWP2 (Tocris, Cat #3533-10) was added to the cultures. The cells were then further differentiated towards pancreatic endoderm using MCDB131 supplemented with 1xGlutamax, 10 mM final glucose concentration, 2% BSA, 0.25 mM Vit.C, 2 ng/ml FGF7, 0.25 μM SANT-1, 0.1 μM retinoic acid, 200 nM LDN193189, 1:200 ITS-X and 100 nM TPB for 3 days. […]

[2] = test system: PDX1+/NKX6.1+ PP2 cells derived from CD177+, CD275+ and CXCR4+ subpopulations; test: Inhibition of WNT secretion during gut tube patterning, FACS for PDX1+/NKX6.1+ PP2 cells from sorted ADE subpopulations; assay type: cell-based, human; details: after addition of IWP2 (1.25 μM) at S2, 2D culture
Description: A) Overview of differentiation protocol towards pancreatic progenitors where inhibition of WNT secretion is performed at […] stage using IWP2 B-D) FACS quantification (B) and immunocytochemistry (C-D) for the percentage of cells expressing
PDX1+/NKX6.1+ generated from CD177+-, CD275+- and CXCR4+-ADE before (B, C), Scale bars, 50 μm and after (B, D) the treatment with IWP2. Scale bars, 20 μm.
as §1, with “Vit.” for “Vit. C (Sigma, Cat #A4544-25G), 50 ng/ml FGF7, 0.25 μM SANT-1 (Sigma, Cat #54572-5MG), 1 μM retinoic acid (Sigma, Cat #R2625-50MG), 100 nM LDN193189 (Sigma, Cat #04-0074), 1:200 ITS-X (Gibco, Cat #51500-056) and 200 nM TPB (Merk Millipore, Cat #565740-1MG) for 2 days. For the WNT inhibition experiment only, 1.25 μM of IWP2 (Tocris, Cat #3533-10) was added to the cultures. The cells were then further differentiated towards pancreatic endoderm using MCDB131 supplemented with 1xGlutamax, 10 mM final glucose concentration, 2% BSA, 0.25 mM Vit.C, 2 ng/ml FGF7, 0.25 μM SANT-1, 0.1 μM retinoic acid, 200 nM LDN193189, 1:200 ITS-X and 100 nM TPB for 3 days.”

[3] = standard differentiation without inhibitor 21%

SMILES	percentage of CD275+ ADE in the bulk CXCR4+ DE population ([1]; 4 μM DMH1 with 100 ng/ml AA, endoderm differentiation until D4, standard differentiation without inhibitor 21%) [%]	percentage of CD177+ ADE in the bulk CXCR4+ DE population ([1]; 4 μM DMH1 with 100 ng/ml AA, endoderm differentiation until D4, standard differentiation without inhibitor 35.5%) [%]	percentage of CD275+ DE differentiation [1, 3] [%]	percentage of PDX1+/NKX6.1+ PP2 cells derived from CD275+ ADE ([2]; without IWP2 approx. 30%) [%]	percentage of PDX1+/NKX6.1+ PP2 cells derived from CXCR4+ DE ([2]; without IWP2 approx. 45%) [%]	change in percentage of PDX1+/NKX6.1+ double positive PP2 cells in CD177+-derived PP2s ([2]; without IWP2 approx. 75%)
CC(C)Oc1ccc(-c2cnc3c(-c4ccnc5ccccc45)cnn3c2)cc1 [DMH1]	14	80.5	54.0			
Cc1ccc2nc(NC(=O)CSc3nc4c(c(=O)n3-c3ccccc3)SCC4)sc2c1 [IWP2]				50	75	No differences were observed
NC(=O)c1ccc(-c2nc(-c3ccc4c(c3)OCO4)c(-c3ccccn3)[nH]2)cc1 [SB431542]			54.0			
